Assay results as given in PubChem BioAssay (NCI).
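48-hour exposure; five concentrations; linearly interpolated endpoints. GI50 is the concentration that inhibits growth by half. TGI: concentration producing complete growth inhibition.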

What was measured:
Test in all cases: inhibition of tumour cell growth, NCI panel, 48 h
RPMI-8226 leukemia = test system: RPMI-8226 leukemia
CCRF-CEM leukemia = test system: CCRF-CEM leukemia
SNB-19 CNS = test system: SNB-19 CNS
HCC-2998 colon = test system: HCC-2998 colon
786-0 renal = test system: 786-0 renal
ACHN renal = test system: ACHN renal
U251 CNS = test system: U251 CNS
RXF 393 renal = test system: RXF 393 renal
DU-145 prostate = test system: DU-145 prostate
BT-549 breast = test system: BT-549 breast

In the case of `CCc1cc(Cc2ccc(C)c(NC(=O)C(=O)C3C(=O)NC(=O)NC3=O)c2CC)cc(C)c1NC(=O)C(=O)C1C(=O)NC(=O)NC1=O`, the TGI (RPMI-8226 leukemia) is reported as over 100 µM, the TGI (CCRF-CEM leukemia) is reported as over 100 µM and the TGI (SNB-19 CNS) is reported as over 100 µM. It also gave a TGI (HCC-2998 colon) of over 100 µM, a TGI (786-0 renal) of over 100 µM and a TGI (ACHN renal) of over 100 µM. The TGI (U251 CNS) was over 100 µM and the TGI (RXF 393 renal) was over 100 µM.

`O=C1C=Cc2ncccc2C1=O` was tested, and the TGI (RPMI-8226 leukemia) was 62.4 µM, the TGI (CCRF-CEM leukemia) was 15.2 µM and the TGI (SNB-19 CNS) was over 100 µM. It also gave a TGI (HCC-2998 colon) of over 61.6 µM, a TGI (786-0 renal) of 29.1 µM and a TGI (ACHN renal) of 50.6 µM. For the same compound, the TGI (U251 CNS) was over 57.8 µM and the TGI (RXF 393 renal) was 35.9 µM.

For `NS(=O)(=O)c1ccc(NC(=O)c2cccc(NC3=C(Cl)C(=O)N(Cc4ccccc4)C3=O)c2)cc1`, the GI50 (RPMI-8226 leukemia) was 3.51 µM, the TGI (RPMI-8226 leukemia) was 14.7 µM and the GI50 (CCRF-CEM leukemia) was 2.82 µM. The TGI (CCRF-CEM leukemia) was 8.17 µM, the GI50 (SNB-19 CNS) was 27.1 µM and the TGI (SNB-19 CNS) was over 100 µM. The GI50 (DU-145 prostate) was 11.1 µM, the TGI (DU-145 prostate) was 25.1 µM and the GI50 (786-0 renal) was 21.5 µM. The TGI (786-0 renal) was over 100 µM, the GI50 (ACHN renal) was 14.7 µM and the TGI (ACHN renal) was 33.2 µM. The GI50 (BT-549 breast) was 5.31 µM, the TGI (BT-549 breast) was 21.3 µM and the GI50 (U251 CNS) was 5.18 µM. It also gave a TGI (U251 CNS) of 19.6 µM, a GI50 (RXF 393 renal) of 10.6 µM and a TGI (RXF 393 renal) of 33.9 µM.

`[CH3][Sn]1([CH3])[O]CC(COc2cc(Cl)c(Cl)cc2Cl)[O]1` (centres undefined) gave a GI50 (RPMI-8226 leukemia) of over 100 µM, a TGI (RPMI-8226 leukemia) of over 100 µM and a GI50 (CCRF-CEM leukemia) of 32.5 µM. It also gave a TGI (CCRF-CEM leukemia) of over 100 µM, a GI50 (SNB-19 CNS) of over 100 µM and a TGI (SNB-19 CNS) of over 100 µM. The GI50 (HCC-2998 colon) was 62.5 µM, the TGI (HCC-2998 colon) was over 100 µM and the GI50 (786-0 renal) was over 100 µM. The TGI (786-0 renal) was over 100 µM, the GI50 (ACHN renal) was 85.5 µM and the TGI (ACHN renal) was over 100 µM. The GI50 (U251 CNS) was over 100 µM, the TGI (U251 CNS) was over 100 µM and the GI50 (RXF 393 renal) was 29.1 µM. The TGI (RXF 393 renal) was over 100 µM.

With `CC(C)(C)Sc1nnc(SC(C)(C)C)c2c(=O)[nH]nc(SC(C)(C)C)c12` the TGI (RPMI-8226 leukemia) was 12.2 µM, the TGI (CCRF-CEM leukemia) was 28.1 µM and the TGI (SNB-19 CNS) was 23.8 µM. The TGI (HCC-2998 colon) was 23.9 µM, the TGI (786-0 renal) was 22.3 µM and the TGI (U251 CNS) was 19.7 µM. It also gave a TGI (RXF 393 renal) of 14.2 µM.

`Oc1ccc(Cl)cc1/C=N\NC(=S)N/N=C/c1cc(Cl)ccc1O` gave a GI50 (RPMI-8226 leukemia) of 3.45 µM, a TGI (RPMI-8226 leukemia) of 34.9 µM and a GI50 (CCRF-CEM leukemia) of 0.468 µM. For the same compound, the TGI (CCRF-CEM leukemia) was 12.1 µM, the GI50 (SNB-19 CNS) was 3.4 µM and the TGI (SNB-19 CNS) was over 100 µM. For the same compound, the GI50 (DU-145 prostate) was 3.67 µM, the TGI (DU-145 prostate) was 70 µM and the GI50 (HCC-2998 colon) was 3.55 µM. For the same compound, the TGI (HCC-2998 colon) was 86.8 µM, the GI50 (786-0 renal) was 1.43 µM and the TGI (786-0 renal) was 4.52 µM. It also gave a GI50 (ACHN renal) of 2.35 µM, a TGI (ACHN renal) of over 100 µM and a GI50 (U251 CNS) of 1.08 µM. The TGI (U251 CNS) was over 100 µM, the GI50 (RXF 393 renal) was 2.03 µM and the TGI (RXF 393 renal) was 6.83 µM.

For `CC1=C(N2CC2)C(=O)c2ccccc2C1=O`, the TGI (CCRF-CEM leukemia) was 15.5 µM, the TGI (SNB-19 CNS) was 6.27 µM and the TGI (DU-145 prostate) was 0.276 µM. It also gave a TGI (786-0 renal) of 3.47 µM, a TGI (ACHN renal) of 1.07 µM and a TGI (U251 CNS) of 10.3 µM. It also gave a TGI (RXF 393 renal) of 2.64 µM.

Compound `Nc1ccn(C2OC(C(OC3OC(CO)C(O)C(N)C3O)C(O)C(O)C(O)C(O)CO)C(N)C(O)C2O)c(=O)n1` (centres undefined) has a TGI (RPMI-8226 leukemia) of over 100 µM, a TGI (CCRF-CEM leukemia) of over 100 µM and a TGI (SNB-19 CNS) of over 100 µM. The TGI (DU-145 prostate) was over 100 µM, the TGI (HCC-2998 colon) was 32.9 µM and the TGI (786-0 renal) was over 100 µM. For the same compound, the TGI (ACHN renal) was over 100 µM, the TGI (BT-549 breast) was 99 µM and the TGI (U251 CNS) was over 100 µM.

`Cn1nc(-c2ccccc2)c(C(=O)/C=C/c2ccc(Cl)cc2)c(N2CCCC2)c1=O` gave a TGI (RPMI-8226 leukemia) of 7.84 µM, a TGI (CCRF-CEM leukemia) of 6.7 µM and a TGI (SNB-19 CNS) of 21.7 µM. For the same compound, the TGI (786-0 renal) was 13.5 µM, the TGI (ACHN renal) was 3.34 µM and the TGI (U251 CNS) was 15.5 µM. For the same compound, the TGI (RXF 393 renal) was 8.52 µM.

In the case of `CC1=CC(=O)NP(=O)(C23CC4CC(CC(C4)C2)C3)N1` (centres undefined), the TGI (RPMI-8226 leukemia) is reported as over 100 µM, the TGI (CCRF-CEM leukemia) is reported as over 100 µM and the TGI (SNB-19 CNS) is reported as over 100 µM. The TGI (786-0 renal) was over 100 µM, the TGI (ACHN renal) was over 100 µM and the TGI (U251 CNS) was over 100 µM.
